The results in this text go back to patent US20210130308A1, “MODULATORS OF EUKARYOTIC INITIATION FACTOR 2” (Denali Therapeutics Inc., priority 2018, published 2021).

The first experiment concerns ATF4 translation (ISR pathway activation). In words: ATF4 Nano Luciferase reporter integrated stress response (ISR) assay in H4 ATF4-NLuc (clone 17) cells. Type of experiment: cell-based, human. As to conditions: H4 ATF4-NLuc (clone 17) cells; compounds 30 minutes at 37 degree Celsius, then 50 um sodium arsenite for 6 additional hours; luminescence readout; read-out: IC50. An excerpt:
Cellular stress leads to activation of the integrated stress response pathway through one of four eukaryotic initiation factor 2α kinases and halts global translation, while allowing for the translation of select transcripts like ATF4 (activating transcription factor 4) that are important for the response to cellular stress. During normal conditions, small open reading frames (ORFs) in the 5′ UTR of ATF4 occupy the ribosome and prevent translation of the coding sequence of ATF4. During stress conditions however, the ribosome scans past these upstream ORFs and preferentially begins translation at the coding sequence of ATF4. In this way, the translation, and thus protein level of ATF4 is a readout of ISR pathway activation. Thus, a fusion of the uORFs and the beginning of the coding sequence of ATF to a common cellular reporter like nano-luciferase allows for a sensitive and high-throughput readout of ISR pathway activity.
Compounds as provided herein were tested in the following assay. The ATF4 Nano Luciferase reporter was constructed by fusing the human full length 5′ untranslated region (5′-UTR) and a small portion of the coding sequence of the ATF4 gene upstream of the Nano Luciferase (NLuc) coding sequence lacking it's start codon. Specifically, nucleotides +1 through +364 (relative to the transcriptional start site) of ATF4 transcript variant 2 (NCBI NM_182810.2) flanked 5′ by EcoRI and 3′ by BamHI restriction enzyme sites were synthesized and cloned into the EcoRI/BamHI cloning sites of pLVX-EF1a-IRES-Puro lentivirus vector (Clontech). […]. H4 cells were selected with […] Puromycin, and clonal cell lines generated by limiting dilution. We utilized this cell line to generate an integrated stress response (ISR) assay to evaluate the activity of ISR pathway inhibitors via luminescence readout. The H4 ATF4-NLuc (clone 17) cell line is plated at a density of […] in 96-well or 384-well respectively in DMEM+10% fetal bovine serum. 24-hours later test compounds diluted in dimethyl sulfoxide (DMSO) are added for 30 minutes at 37 degree Celsius, followed by ISR pathway activation with 50 um sodium arsenite aqueous solution for 6 additional hours. Nano Glo luciferase reagent (N1150, Promega) is added according to manufacturer instructions and the luminescence signal (corresponding to the level of ATF4 translation and thus ISR pathway activation) is read with a standard plate reader with luminescence detection capabilities.
In the table below, activity of the tested compounds is provided in Table 3 as follows: +++=IC50<1 μM; ++=IC50 1-10 μM; +=IC50>10 μM.
Take `N#CC1CC(OCC(=O)NC23CC(NC(=O)COc4ccc(Cl)cc4)(C2)C3)C1` (stereo not drawn) [Example 31, 2-(4-chlorophenoxy)-N-[3-[[2-(3-cis-cyanocyclobutoxy)acetyl]amino]-1-bicyclo[1.1.1]pentanyl]acetamide]: the IC50 is less than 1000 nM.

Still in this experiment, the particulars now being: Homo sapiens, 0.5 h.
`O=C(COc1ccc(Cl)cc1)N[C@H]1CC[C@H](c2nnc(C3CC(OC(F)(F)F)C3)o2)CC1` (stereo partly drawn) [Example 29, 2-(4-chlorophenoxy)-N-[4-[5-[3-cis-(trifluoromethoxy)cyclobutyl]-1,3,4-oxadiazol-2-yl]cyclohexyl]acetamide] came in with a half-inhibitory concentration (IC50) of less than 1000 nM. In turn, `O=C(COC1CC(OC(F)(F)F)C1)NC1CCN(c2nnc(-c3ccc(Cl)cc3)o2)CC1` (stereo not drawn) [Example 44, N-[1-[5-(4-chlorophenyl)-1,3,4-oxadiazol-2-yl]-4-piperidyl]-2-[3-cis-(trifluoromethoxy)cyclobutoxy]acetamide] registered an IC50 of less than 1000 nM.

The same experiment, now with this note: Homo sapiens, 0.5 h; H4 ATF4-NLuc (clone 17) cells; compounds 30 minutes at 37 degree Celsius, then 50 um sodium arsenite for 6 additional hours; luminescence readout; read-out: IC50.
Regarding `N#CC1CC(OCC(=O)N2CC3(CC(NC(=O)COc4ccc(Cl)c(F)c4)C3)C2)C1` (stereo not shown) [Example 20, 2-(4-chloro-3-fluoro-phenoxy)-N-[2-[2-(3-cyanocyclobutoxy)acetyl]-2-azaspiro[3.3]heptan-6-yl]acetamide], the IC50 was less than 1000 nM. Take `O=C(COc1ccc(Cl)c(F)c1)NC1CC2(C1)CN(C(=O)COC1CC(OC(F)(F)F)C1)C2` (stereo not drawn) [Example 21, 2-(4-chloro-3-fluoro-phenoxy)-N-[2-[2-[3-cis-(trifluoromethoxy)cyclobutoxy]acetyl]-2-azaspiro[3.3]heptan-6-yl]acetamide]: the IC50 is less than 1000 nM. Turning to `O=C(COC1CC(OC(F)(F)F)C1)NC1CN(c2nnc(COc3ccc(Cl)c(F)c3)o2)C1` (stereo not drawn) [Example 22, N-[1-[5-[(4-chloro-3-fluoro-phenoxy)methyl]-1,3,4-oxadiazol-2-yl]azetidin-3-yl]-2-[3-cis-(trifluoromethoxy)cyclobutoxy]acetamide], the IC50 was less than 1000 nM.

As to `O=C(COc1ccc(Cl)c(F)c1)NC1CN(c2nnc(COC3CC(OC(F)(F)F)C3)o2)C1` (stereo not drawn) [Example 23, 2-(4-chloro-3-fluoro-phenoxy)-N-[1-[5-[[3-cis-(trifluoromethoxy)cyclobutoxy]methyl]-1,3,4-oxadiazol-2-yl]azetidin-3-yl]acetamide], the IC50 is less than 1000 nM. For `O=C(COc1ccc(Cl)c(F)c1)NC1CN(C(=O)COC2CC(OC(F)(F)F)C2)C1` (stereo not drawn) [Example 24, 2-(4-chloro-3-fluoro-phenoxy)-N-[1-[2-[3-cis-(trifluoromethoxy)cyclobutoxy]acetyl]azetidin-3-yl]acetamide], the IC50 fell in the range of 1000 to 10000 nM. For the molecule `O=C(CO[C@H]1C[C@@H](OC(F)(F)F)C1)NC1CN(C(=O)COC2CC(OC(F)(F)F)C2)C1` (stereo partly drawn) [Example 25, 2-[3-cis (trifluoromethoxy)cyclobutoxy]-N-[1-[2-[3-cis-(trifluoromethoxy)cyclobutoxy]acetyl]azetidin-3-yl]acetamide], the IC50 lay in the range of 1000 to 10000 nM.

As for `O=C(COc1ccc(Cl)c(F)c1)NC1CCN(c2nnc(C3CC(OC(F)(F)F)C3)o2)CC1` (stereo not drawn) [Example 26, 2-(4-chloro-3-fluoro-phenoxy)-N-[1-[5-[3-cis-(trifluoromethoxy)cyclobutyl]-1,3,4-oxadiazol-2-yl]-4-piperidyl]acetamide], the IC50 was less than 1000 nM. For the molecule `O=C(COc1ccc(Cl)c(F)c1)NC1CCN(CCO[C@H]2C[C@@H](OC(F)(F)F)C2)CC1` [Example 27, 2-(4-chloro-3-fluoro-phenoxy)-N-[1-[2-[3-cis-(trifluoromethoxy)cyclobutoxy]ethyl]-4-piperidyl]acetamide], the concentration for half-maximal inhibition (IC50) is less than 1000 nM. Take `O=C(COc1ccc(Cl)c(F)c1)N[C@H]1CC[C@H](c2nnc(C3CC(OC(F)(F)F)C3)o2)CC1` (stereo partly drawn) [Example 28, 2-(4-chloro-3-fluoro-phenoxy)-N-[4-[5-[3-cis-(trifluoromethoxy)cyclobutyl]-1,3,4-oxadiazol-2-yl]cyclohexyl]acetamide]: the 50% inhibitory concentration (IC50) was less than 1000 nM. Regarding `O=C(COC1CC(OC(F)(F)F)C1)N[C@H]1CC[C@H](c2nnc(C3CC(OC(F)(F)F)C3)o2)CC1` (stereo partly drawn) [Example 30, 2-[3-cis-(trifluoromethoxy)cyclobutoxy]-N-[4-[5-[3-cis-(trifluoromethoxy)cyclobutyl]-1,3,4-oxadiazol-2-yl]cyclohexyl]acetamide], the 50% inhibitory concentration (IC50) is less than 1000 nM.

Regarding `O=C(COC1CC(OC(F)(F)F)C1)NC1CC2(C1)CC(c1nnc(C3CC(OC(F)(F)F)C3)o1)C2` (stereo not drawn) [Example 32, 2-[3-cis-(trifluoromethoxy)cyclobutoxy]-N-[6-[5-[3-cis-(trifluoromethoxy)cyclobutyl]-1,3,4-oxadiazol-2-yl]spiro[3.3]heptan-2-yl]acetamide], the half-inhibitory concentration (IC50) is less than 1000 nM. Turning to `O=C(COc1ccc(Cl)c(F)c1)NC1CC2(C1)CC(c1nnc(C3CC(OC(F)(F)F)C3)o1)C2` (stereo not drawn) [Example 33, 2-(4-chloro-3-fluoro-phenoxy)-N46-[5-[3-cis-(trifluoromethoxy)cyclobutyl]-1,3,4-oxadiazol-2-yl]spiro[3.3]heptan-2-yl)acetamide], the IC50 is less than 1000 nM. For `O=C(COc1ccc(Cl)c(F)c1)NC12CC(NC(=O)COC3CC(OC(F)F)C3)(C1)C2` (stereo not drawn) [Example 34, 2-(4-chloro-3-fluoro-phenoxy)-N-[3-[[2-[3-cis-(difluoromethoxy)cyclobutoxy]acetyl]amino]-1-bicyclo[1.1.1]pentanyl]acetamide], the 50% inhibitory concentration (IC50) was less than 1000 nM. On to `COC1CC(OCC(=O)NC23CC(NC(=O)COc4ccc(Cl)c(F)c4)(C2)C3)C1` (stereo not drawn) [Example 35, 2-(4-chloro-3-fluoro-phenoxy)-N-[3-[[2-(3-cis-methoxycyclobutoxy)acetyl]amino]-1-bicyclo[1.1.1]pentanyl]acetamide], for which the half-inhibitory concentration (IC50) is less than 1000 nM. Consider `CC1CC(OCC(=O)NC23CC(NC(=O)COc4ccc(Cl)cc4)(C2)C3)C1` (stereo not drawn) [Example 36, 2-(4-chlorophenoxy)-N-[3-[[2-(3-cis-methylcyclobutoxy)acetyl]amino]-1-bicyclo[1.1.1]pentanyl]acetamide], for which the IC50 was less than 1000 nM.

For `O=C(COc1ccc(Cl)c(F)c1)NC12CC(NC(=O)CO[C@H]3C[C@@H](OC(F)(F)F)C3)(C1)C2` [Example 37, 2-(4-chloro-3-fluoro-phenoxy)-N-[3-[[2-[3-cis-(trifluoromethoxy)cyclobutoxy]acetyl]amino]-1-bicyclo[1.1.1]pentanyl]acetamide], the half-maximal inhibitory concentration (IC50) is less than 1000 nM. In the case of `O=C(COc1ccc(Cl)c(F)c1)NC12CC(NC(=O)COC3CC(C(F)F)C3)(C1)C2` (stereo not drawn) [Example 38, 2-(4-chloro-3-fluoro-phenoxy)-N-[3-[[2-[3-cis-(difluoromethyl)cyclobutoxy]acetyl]amino]-1-bicyclo[1.1.1]pentanyl]acetamide], the half-inhibitory concentration (IC50) is less than 1000 nM. As for `O=C(COC1CC(OC(F)(F)F)C1)NC12CC(NC(=O)COC3CC(OC(F)(F)F)C3)(C1)C2` (stereo not drawn) [Example 39, 2-[3-cis-(trifluoromethoxy)cyclobutoxy]-N-[3-[[2-[3-cis-(trifluoromethoxy)cyclobutoxy]acetyl]amino]-1-bicyclo[1.1.1]pentanyl]acetamide], the IC50 was less than 1000 nM. Same read-out and setting: under `O=C(COc1ccc(Cl)c(F)c1)N[C@H]1C[C@@H]2CN(C(=O)COC3CCC3)C[C@@H]2C1` [Example 40, 2-(4-chloro-3-fluorophenoxy)-N-((3aR,5s,6aS)-2-(2-cyclobutoxyacetyl)octahydrocyclopenta[c]pyrrol-5-yl)acetamide] stands less than 1000 nM; under `O=C(COc1ccc(Cl)c(F)c1)N[C@@H]1C[C@@H]2CN(C(=O)COC3CCC3)C[C@@H]2C1` [Example 41, 2-(4-chloro-3-fluorophenoxy)-N-((3aR,5r,6aS)-2-(2-cyclobutoxyacetyl)octahydrocyclopenta[c]pyrrol-5-yl)acetamide], less than 1000 nM.

`O=C(COc1ccc(Cl)c(F)c1)N[C@@H]1C[C@@H]2[C@H](C1)[C@H]2c1nnc(C2CC(OC(F)(F)F)C2)o1` (stereo partly drawn) [Example 43, 2-(4-chloro-3-fluoro-phenoxy)-N-[(1R,5S)-6-[5-[3-(trifluoromethoxy)cyclobutyl]-1,3,4-oxadiazol-2-yl]-3-bicyclo[3.1.0]hexanyl]acetamide]: the IC50 was less than 1000 nM.

For `O=C(COc1ccc(Cl)c(F)c1)NC1CCN(c2cnn(C3CC(OC(F)(F)F)C3)c2)CC1` (stereo not drawn) [Example 46, 2-(4-chloro-3-fluorophenoxy)-N-(1-(1-(3-cis-(trifluoromethoxy)cyclobutyl)-1H-pyrazol-4-yl)piperidin-4-yl)acetamide], the half-inhibitory concentration (IC50) was less than 1000 nM.
